{"source": "patent US20100272736A1", "about": "“COMBINATION ANTIBIOTIC AND ANTIBODY THERAPY FOR THE TREATMENT OF PSEUDOMONAS AERUGINOSA INFECTION” (priority 2009, published 2010)", "key": {"PA103": {"test_system": "PA103", "assay": "PA103 antibiotic sensitivity (MicroScan Neg Combo plates, CLSI guidelines)", "type": "cell-based, P. aeruginosa", "settings": "conventional antibiotic resistance testing, CLSI interpretation", "source_text": "PA103 antibiotic sensitivity Dade Behring MicroScan Neg Combo plates were used to determine the antibiotic sensitivity of PA103 by conventional antibiotic sensitivity testing according to the manufacturers instructions.\n(§1) The acutely infectious strain P. aeruginosa PA103 was used for this study."}, "P. aeruginosa PA103 [1]": {"test_system": "P. aeruginosa PA103", "assay": "Acute murine airway infection model: survival and body temperature (Mab166 iv, antibiotic ip)", "type": "in vivo, mice", "settings": "for survival rate over a 7 day period: antibiotic alone ip Q8H (ciprofloxacin 100 mg/kg, tobramycin 3.3 mg/kg, ceftazidime 1000 mg/kg); for survival (piperacillin experiment): piperacillin/tazobactam 1000 mg/kg ip Q8H, Mab166 300 μg iv, FIG. 7", "experimental": "Bacterial administration and lung injury measurement in mice. Following anesthesia with avertin (250 mg kg^−1; ip), mice were inoculated with a volume of fifty μl of bacterial working stock (1.5×10^6 CFU), which was instilled into the left lung through the trachea using a 27G gavages needle. Mice were allowed to recover for 15 minutes prior to being returned to their cages. […] Rectal temperature was recorded hourly for the initial 12 hours post bacterial instillation followed by daily measurements for 7 days. Survival time was recorded for each mouse.\nAntibiotics and PcrV antibody administration. […] All antibiotics were administrated intraperitoneally 1 hour after P. aeruginosa instillation. Four doses of each antibiotic were tested in mice to determine the dose needed to produce sub-optimal survival rates (40-60%) in mice infected with 1.5×10^6 PA103 CFU, which is a 3× lethal amount of bacteria.\nStatistics. Kaplan-Meier plots were generated for survival analysis and ANOVA was used to compare lung injury score, bacterial CFU's and MPO activity in various treatment groups at specific time points; P 0.05 was considered significant.\nas §1\nAnti-PcrV antibody was intravenously injected one hour before P. aeruginosa instillation. Mice were then anesthetized with avertin (250 mg/kg), prior to instillation of 1.5×10^6 CFU PA103 into the trachea. Intraperitoneal piperacillin (1000 mg/kg, Q8H) injection commenced one hour after P. aeruginosa instillation and repeated until mice expired. Piperacillin was administered in combination with tazobactam (a pencillinase inhibitor), which is the standard practice for administration. In this example, “piperacillin” refers to piperacillin in combination with tazobactam."}, "P. aeruginosa PA103 [2]": {"test_system": "P. aeruginosa PA103", "assay": "Bacterial enumeration (CFU) in lungs, blood and spleen", "type": "in vivo, mice", "experimental": "Bacterial enumeration. Lungs were removed aseptically from the thoracic cavity, placed in 1 ml of sterile PBS and homogenized. Spleens were aseptically removed and homogenized in 1 ml of PBS and blood was drawn from right ventricle puncture. All samples were serially diluted in sterile PBS and plated on P. aeruginosa isolation agar prior to overnight incubation at 37° C. Plates with cell counts between 30 and 300 were enumerated and mean CFU ml^−1 of triplicate counts was calculated for each sample.\nThese samples were analyzed for bacterial CFU's as described in materials and methods."}}}
{"smiles": "CC(C)(O/N=C(\\C(=O)N[C@@H]1C(=O)N2C(C(=O)[O-])=C(C[n+]3ccccc3)CS[C@H]12)c1csc(N)n1)C(=O)O", "note": "[ceftazidime]", "values": [{"measurement": "antibiotic susceptibility of PA103", "setting": "PA103", "value": "susceptible"}, {"measurement": "survival rate over a 7 day period", "setting": "P. aeruginosa PA103 [1]", "value": 40, "unit": "%"}]}
{"smiles": "CCN1CCN(C(=O)N[C@@H](C(=O)N[C@@H]2C(=O)N3[C@@H]2SC(C)(C)[C@@H]3C(=O)O)c2ccccc2)C(=O)C1=O", "note": "[piperacillin]", "values": [{"measurement": "survival (piperacillin experiment)", "setting": "P. aeruginosa PA103 [1]", "value": "increased survival minimally"}, {"measurement": "survival (piperacillin experiment)", "setting": "P. aeruginosa PA103 [1]; listed as Piperacillin", "value": "slight increase in animal survival"}]}
{"smiles": "NC[C@H]1O[C@H](O[C@H]2[C@H](O)[C@@H](O[C@H]3O[C@H](CO)[C@@H](O)[C@H](N)[C@H]3O)[C@H](N)C[C@@H]2N)[C@H](N)C[C@@H]1O", "note": "[tobramycin]", "values": [{"measurement": "P. aeruginosa CFU's in the blood", "setting": "P. aeruginosa PA103 [2]; 8 and 24 hours post infection", "value": "significant (P=0.01, P=0.0046 respectively) increases"}, {"measurement": "total CFU's in the lungs", "setting": "P. aeruginosa PA103 [2]; 8 and 24 hours post infection, compared to control mice", "value": "significantly lower"}, {"measurement": "bacterial CFU's in the spleen", "setting": "P. aeruginosa PA103 [2]; 24 hours vs 8 hours post infection", "value": "increased significantly"}, {"measurement": "antibiotic susceptibility of PA103", "setting": "PA103", "value": "susceptible"}, {"measurement": "survival rate over a 7 day period", "setting": "P. aeruginosa PA103 [1]", "value": 60, "unit": "%"}]}
